Patent publication EP0934745B1, “Use of androsterone derivatives for inhibiting DNA binding of ap-1 and airway smooth muscle proliferation” (CHARLOTTE-MECKLENBURG HOSPITAL doing business as Carolinas …, priority 1998, dated 1999)

Test system: transcription factor activator protein-1 (AP-1)
Assay: Electrophoretic mobility shift assay of DNA binding of AP-1 in nuclear protein from treated cells
Assay type: cell-based, rat
Details: pretreated 2 hours, then 10% FBS 6 hours; 50 µM DHEA; 2 and 10 µM 16α-BrEA (Figures 8A, 8B)
Protocol: To study the effect of DHEA and 16α-BrEA on activation of AP-1, a secondary response important in cellular growth and proliferation (Angel and Karin, (1991), supra) confluent monolayers of airway smooth muscle in 75-cm^2 Petri dishes were growth arrested for 24 hours in 0.5% FBS and DMEM and pretreated 2 hours with DHEA, 16α-BrEA or DMSO vehicle. Cells were then stimulated with 10% FBS in DMEM for 6 hours, nuclear protein was harvested, and electrophoretic mobility shift assays were performed as described below to determine if treatment with DHEA and 16α-BrEA impaired DNA binding of AP-1. Measurement of Cytotoxicity and Apoptosis. To assess for cytotoxicity, DHEA or 16α-BrEA were added to wells of airway smooth muscle cells previously grown to confluence in DMEM and 10% FBS. After 24 hours, media was microfuged 5 minutes and supernatant was assayed for lactate dehydrogenase activity using a commercially available assay (DG-1340K from Sigma). Cells were washed twice in DPBS and exposed to trypan blue dye (0.04% in Hanks' balanced salt solution). Cell counts were performed in five random fields using a 0.01-cm^2 ocular grid to quantitate the average number of damaged or dead cells that accumulated dye.
RNA (100 ng) was reverse-transcribed using M-MLV reverse transcriptase. […] The resulting polaroid negative was quantitated using a Bio Image Analyzer (Bio Image, Ann Arbor, MI). […]

Compound | DNA binding of AP-1
C[C@]12CC[C@H](O)CC1=CC[C@@H]1[C@@H]2CC[C@]2(C)C(=O)CC[C@@H]12 [DHEA, dehydroepiandrosterone] | inhibit DNA binding of AP-1
C[C@]12CC[C@H](O)C[C@@H]1CC[C@@H]1[C@@H]2CC[C@]2(C)C(=O)[C@H](Br)C[C@@H]12 [16α-BrEA, 16α-bromoepiandrosterone] | inhibit DNA binding of AP-1
